Source: the Kinase Knowledgebase extract (Sharma et al. 2016)
pIC50: −log10 of the molar value.

What follows are molecules tested against MAPK14;MAPK11;MAPK12 (human) (UniProt Q16539) (assay: Inhibition of p38 Kinase Activity).

SMILES	pIC50
CC(CN(C)c1nc(Nc2ccc3ncsc3c2)nc(N2CCNCC2)n1)c1ccccc1 (stereo unspecified)	> 5.00
Cc1ccc(C(N)=O)cc1Nc1nc(N[C@@H]2CCNC2)nc(OC[C@@H]2CC[C@H]3C[C@H]2C3(C)C)n1	> 6.00
COc1nc(NCC(C)c2ccccc2)nc(Nc2ccc3ncsc3c2)n1 (stereo unspecified)	> 5.00
Cc1ccc(C(N)=O)cc1Nc1nc(NCC(N)=O)nc(NCC(C)c2ccccc2)n1 (stereo unspecified)	> 6.00
CN(CCN(C)c1nc(NCC2CCC3CC2C3(C)C)nc(Nc2ccc3ncsc3c2)n1)C(=O)CCC(=O)O (stereo unspecified)	> 5.00
CNc1nc(Nc2cc(C(N)=O)ccc2C)nc(N[C@H]2CCNC2)n1	> 6.00
CNc1nc(NCC(C)c2ccccc2)nc(Nc2ccc3ncsc3c2)n1 (stereo unspecified)	> 5.00
CCCCC(C)c1nc(Nc2cc(C(N)=O)ccc2C)nc(N[C@H]2CCNC2)n1 (stereo partly specified)	> 6.00
CC(C)C(=O)N1CC2CC1CN2c1nc(NCC(C)c2ccccc2)nc(Nc2ccc3ncsc3c2)n1 (stereo unspecified)	> 5.00
Cc1cc2c(cc1Cl)C(=O)N2c1nc(N[C@H]2CCNC2)nc(N(C)CC(C)C)n1	> 6.00
Cc1ccc(C(N)=O)cc1Nc1nc(NC[C@@H]2CC[C@H]3C[C@H]2C3(C)C)nc(N[C@H]2CCNC2)n1	> 6.00
CNC(=O)c1ccc(C)c(Nc2nc(NC[C@H]3CCCN3)nc(N(C)CC(C)(C)C)n2)c1	> 6.00
Cc1ccc(C(=O)NC2CCCCC2)cc1Nc1nc(N[C@H]2CCNC2)nc(N(C)CC(C)(C)C)n1	> 6.00
CC(CNc1nc(Nc2ccc3ncsc3c2)nc(N(C)CCCN(C)C(=N)N)n1)c1ccccc1 (stereo unspecified)	> 5.00
CC1(C)C2CCC(CNc3nc(Nc4ccc5ncoc5c4)nc(N4CCN(C(=O)CCC(=O)O)CC4)n3)C1C2 (stereo unspecified)	> 5.00
Cc1ccccc1NC(=S)N(C)CCCN(C)c1nc(NCC(C)c2ccccc2)nc(Nc2ccc3ncsc3c2)n1 (stereo unspecified)	> 5.00
Cc1ccc(C(N)=O)cc1Nc1nc(NCCCn2ccnc2)nc(NC2CCCC2)n1	> 6.00
CC(CNc1nc(Nc2ccc3ncsc3c2)nc(N2CC3CC2CN3C(=O)c2ccco2)n1)c1ccccc1 (stereo unspecified)	> 5.00
CC1(C)[C@H]2CCC(COc3nc(O)nc(Nc4ccc5ncsc5c4)n3)[C@@H]1C2 (stereo partly specified)	> 5.00
Cc1ccc(C(N)=O)cc1Nc1nc(NCC2CC3CCC2C3)nc(N[C@H]2CCNC2)n1 (stereo partly specified)	> 6.00
Cc1ccc(-c2nn(C)c(=O)[nH]2)cc1Nc1nc(N(C)CC(C)(C)C)nc(N2CCCN(C)CC2)n1	> 6.00

SMILES	pIC50
OC(CNc1nc(Cl)nc(Nc2ccc3ncsc3c2)n1)c1ccccc1 (stereo unspecified)	> 5.00
C[C@H](CNc1nc(Nc2ccc3ncsc3c2)nc(N(C)CCN(C)C(=O)CCC(=O)O)n1)c1ccccc1	> 5.00
Cc1ccc(C(N)=O)cc1Nc1nc(N[C@H]2CCN(Cc3ccccc3)C2)nc(N(C)CC(C)(C)C)n1	> 6.00
C=CCN1CC[C@H](Nc2nc(Nc3cc(C(=O)NC(C)C)ccc3C)nc(N(C)CC3CCCC3)n2)C1	> 6.00
CNC(=O)c1ccc(C)c(Oc2nc(N(C)CC(C)(C)C)nc(N3CCCN(C)CC3)n2)c1	> 4.52
Cc1ccc(C(N)=O)cc1Nc1nc(NCC2CCNCC2)nc(NC2CCCC2)n1	> 6.00
CONC(=O)c1ccc(C)c(Nc2nc(NCCCN3CCCC3)nc(N(C)CC(C)(C)C)n2)c1	> 6.00
CC(CNc1nc(Nc2ccc3ncsc3c2)nc(N(C)CCCN(C)S(=O)(=O)N(C)C)n1)c1ccccc1 (stereo unspecified)	> 5.00
CC(=O)N1CC2CC1CN2c1nc(NCC(C)c2ccccc2)nc(Nc2ccc3ncsc3c2)n1 (stereo unspecified)	> 5.00
Cc1ccc(C(N)=O)cc1Nc1nc(N[C@H]2CCNC2)nc(N(C)CC(C)c2ccccc2)n1 (stereo partly specified)	> 6.00
CC(C)c1nc(NC[C@@H]2CC[C@@H]3C[C@H]2C3(C)C)nc(Nc2ccc3ncsc3c2)n1	> 5.00
Cc1ccc(C(N)=O)cc1Nc1nc(N[C@H]2CCN(C3CCC3)C2)nc(N(C)CC(C)C)n1	> 6.00
Clc1nc(Nc2ccc3ncsc3c2)nc(N2CCC3CCCCC3C2)n1 (stereo unspecified)	> 5.00
Cc1cc(Cl)c(C(N)=O)cc1Nc1nc(N[C@H]2CCNC2)nc(N(C)CC(C)C)n1	> 6.00
Cc1ccc(C(N)=O)cc1Nc1nc(NCCc2ccc(Cl)cc2)nc(N[C@H]2CCNC2)n1	> 6.00
Cc1ccc(C(N)=O)cc1Nc1nc(N[C@H]2CCN(CCC#N)C2)nc(N(C)CC(C)(C)C)n1	> 6.00
CC(CNc1nc(Nc2ccc3ncsc3c2)nc(N(C)CCCN(C)C(=S)NC2CCCCC2)n1)c1ccccc1 (stereo unspecified)	> 5.00
CNC(=O)c1ccc(C)c(Nc2nc(O[C@H]3CCNC3)nc(N(C)CC(C)(C)C)n2)c1	> 6.00
Cc1ccc(C(N)=O)cc1Nc1nc(N[C@H]2CCNC2)nc(N(C)CC(C)c2ccc(Cl)cc2)n1 (stereo partly specified)	> 6.00
CN(CC(C)(C)C)c1nc(Cc2cccc(C(N)=O)c2)nc(N[C@H]2CCNC2)n1	> 6.00
CCCC1(C)CCN(c2nc(Nc3cc(C(=O)NC)ccc3C)nc(N[C@@H]3CCNC3)n2)C1 (stereo partly specified)	> 6.00

Second part, the molecule after the results:

pIC50	SMILES
> 6.00	Cc1ccc(-c2nnco2)cc1Nc1nc(N[C@@H]2CCNC2)nc(N(C)CC(C)(C)C)n1
> 6.00	Cc1ccc(C(N)=O)cc1Nc1cc(N(C)CC(C)C)nc(N[C@H]2CCNC2)n1
> 6.00	CCC(C)N1CC[C@@H](Nc2nc(Nc3cc(C(N)=O)ccc3C)nc(N(C)CC(C)(C)C)n2)C1 (stereo partly specified)
> 6.00	CNC(=O)c1ccc(C)c(Nc2nc(N[C@H]3CCN(C(C)C)C3)nc(N(C)CC(C)(C)C)n2)c1
> 6.00	Cc1ccc(C(N)=O)cc1Nc1nc(N[C@H]2CCN(S(C)(=O)=O)C2)nc(N(C)CC(C)C)n1
> 4.52	Cc1ccc(C(N)=O)cc1Oc1nc(N[C@@H]2CCNC2)nc(N(C)CC(C)(C)C)n1
> 6.00	CONC(=O)c1ccc(C)c(Nc2nc(NCc3ccccc3)nc(N(C)CC(C)(C)C)n2)c1
> 6.00	Cc1ccc(C(N)=O)cc1Nc1nc(N[C@H]2CCN(Cc3ccc(C(C)(C)C)cc3)C2)nc(N(C)CC(C)C)n1
> 6.00	Cc1ccc(C(N)=O)cc1Nc1nc(NC2CCN(Cc3ccc(C(C)C)cc3)C2)nc(N(C)CC(C)C)n1 (stereo unspecified)
> 5.00	CC(C)c1nc(Cl)nc(Nc2ccc3ncsc3c2)n1
> 6.00	CONC(=O)c1ccc(C)c(Nc2nc(F)cc(N(C)CC(C)(C)C)n2)c1
> 6.00	COc1ccc(CN2CCC(Nc3nc(Nc4cc(C(N)=O)ccc4C)nc(N(C)CC(C)C)n3)C2)cc1 (stereo unspecified)
> 4.52	Cc1ccc(C(N)=O)cc1Sc1nc(N[C@@H]2CCNC2)nc(N(C)CC(C)(C)C)n1
> 6.00	Cc1ccc(C(N)=O)cc1Nc1nc(N[C@H]2CCNC2)cc(N(C)CC(C)(C)C)n1
> 6.00	Cc1ccc(C(N)=O)cc1Nc1nc(N[C@H]2CCN(C(C)C)C2)nc(N(C)CC(C)C)n1
> 6.00	Cc1ccc(C(N)=O)cc1Nc1nc(N[C@H]2CCCNC2)nc(N(C)CC(C)(C)C)n1
> 6.00	CONC(=O)c1ccc(C)c(Nc2nc(NCCc3ccccn3)nc(N(C)CC(C)(C)C)n2)c1
> 6.00	Cc1ccc(COC(=O)C(F)(F)F)cc1Nc1nc(N[C@H]2CCNC2)nc(N(C)CC(C)(C)C)n1
> 4.52	CONC(=O)c1ccc(C)c(Oc2nc(N[C@@H]3CCNC3)nc(N(C)CC(C)(C)C)n2)c1
> 6.00	Cc1ccc(C(=O)Nc2ccccn2)cc1Nc1nc(N[C@H]2CCNC2)nc(N(C)CC(C)(C)C)n1
> 5.00	Cc1ccc2c(c1)ncn2-c1nc(NCCOC(C)C)cc(N(C)C)n1
> 6.00	CONC(=O)c1ccc(C)c(Nc2nc(N[C@H]3CCNC3)cc(N(C)CC(C)(C)C)n2)c1
> 6.00	Cc1ccc(C(N)=O)cc1Nc1nc(N[C@H]2CCN(C(C)C#N)C2)nc(N(C)CC(C)C)n1 (stereo partly specified)
> 6.00	Cc1ccc(C(N)=O)cc1Nc1nc(N[C@@H]2CCN(C(C)CC(C)C)C2)nc(N(C)CC(C)C)n1 (stereo partly specified)
